In PubChem BioAssay (NCI):
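These data come from cells grown in 96-well plates and exposed to compound for 48 hours at five concentrations. GI50 = concentration required for 50% inhibition of growth. TGI marks complete inhibition of growth.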

Columns and labels:
Experiment in all cases: inhibition of tumour cell growth, NCI panel, 48 h
[1] = system: 786-0 renal
[2] = system: A498 renal
[3] = system: ACHN renal
[4] = system: BT-549 breast
[5] = system: CAKI-1 renal
[6] = system: CCRF-CEM leukemia
[7] = system: COLO 205 colon
[8] = system: DU-145 prostate
[9] = system: HCC-2998 colon
[10] = system: HCT-116 colon
[11] = system: HCT-15 colon
[12] = system: HL-60(TB) leukemia
[13] = system: HOP-62 NSCLC
[14] = system: HOP-92 NSCLC
[15] = system: HS 578T breast
[16] = system: HT29 colon
[17] = system: IGROV1 ovarian
[18] = system: K-562 leukemia
[19] = system: KM12 colon
[20] = system: LOX IMVI melanoma
[21] = system: M14 melanoma
[22] = system: MALME-3M melanoma
[23] = system: MCF7 breast
[24] = system: MDA-MB-231 breast
[25] = system: MDA-MB-435
[26] = system: MOLT-4 leukemia
[27] = system: NCI-H226 lung
[28] = system: NCI-H23 lung
[29] = system: NCI-H460 lung
[30] = system: NCI-H522 lung
[31] = system: NCI/ADR-RES ovarian
[32] = system: OVCAR-3 ovarian
[33] = system: OVCAR-4 ovarian
[34] = system: OVCAR-5 ovarian
[35] = system: OVCAR-8 ovarian
[36] = system: PC-3 prostate
[37] = system: RPMI-8226 leukemia
[38] = system: RXF 393 renal
[39] = system: SF-268 CNS
[40] = system: SF-295 CNS
[41] = system: SF-539 CNS
[42] = system: SK-MEL-2 melanoma
[43] = system: SK-MEL-28 melanoma
[44] = system: SK-MEL-5 melanoma
[45] = system: SK-OV-3 ovarian
[46] = system: SN12C renal
[47] = system: SNB-19 CNS
[48] = system: SNB-75 CNS
[49] = system: SR leukemia
[50] = system: SW-620 colon
[51] = system: T-47D breast
[52] = system: TK-10 renal
[53] = system: U251 CNS
[54] = system: UACC-62 melanoma
[55] = system: UO-31 renal

Compound: Cc1oc2c(c1C(=O)N1CC[C@@H](N)C1)C(=O)c1c(c(O)c3ccccc3c1O)C2=O
- GI50 [1]: 3.93 µM
- TGI [1]: 17.3 µM
- GI50 [2]: 3.38 µM
- TGI [2]: 18.9 µM
- GI50 [3]: 0.629 µM
- TGI [3]: 11.1 µM
- GI50 [4]: 8.83 µM
- TGI [4]: 22.5 µM
- GI50 [5]: 0.611 µM
- TGI [5]: 11.4 µM
- GI50 [6]: 1.01 µM
- TGI [6]: 4.33 µM
- GI50 [7]: 0.643 µM
- TGI [7]: 1.97 µM
- GI50 [8]: 1.06 µM
- TGI [8]: 15.5 µM
- GI50 [9]: 3.11 µM
- TGI [9]: 11.7 µM
- GI50 [10]: 1.28 µM
- TGI [10]: 4.59 µM
- GI50 [11]: 1.49 µM
- TGI [11]: 11.9 µM
- GI50 [12]: 1.17 µM
- TGI [12]: 4.31 µM
- GI50 [13]: 0.51 µM
- TGI [13]: 4.11 µM
- GI50 [14]: 4.64 µM
- TGI [14]: 17.4 µM
- GI50 [15]: 5.23 µM
- TGI [15]: 22.6 µM
- GI50 [16]: 1.68 µM
- TGI [16]: 6.66 µM
- GI50 [17]: 1.27 µM
- TGI [17]: 3.94 µM
- GI50 [18]: 1.86 µM
- TGI [18]: 9 µM
- GI50 [19]: 2.98 µM
- TGI [19]: 14.4 µM
- GI50 [20]: 1.1 µM
- TGI [20]: 3.96 µM
- GI50 [21]: 1.41 µM
- TGI [21]: 2.96 µM
- GI50 [22]: 1.78 µM
- TGI [22]: 7.62 µM
- GI50 [23]: 1.01 µM
- TGI [23]: 4.9 µM
- GI50 [24]: 2.26 µM
- TGI [24]: 9.06 µM
- GI50 [25]: 2.58 µM
- TGI [25]: 10.1 µM
- GI50 [26]: 0.304 µM
- TGI [26]: 1.96 µM
- GI50 [27]: 1.52 µM
- TGI [27]: 22.6 µM
- GI50 [28]: 2.61 µM
- TGI [28]: 12.2 µM
- GI50 [29]: 0.308 µM
- TGI [29]: 2.21 µM
- GI50 [30]: 1.39 µM
- TGI [30]: 4.77 µM
- GI50 [31]: 2.39 µM
- TGI [31]: 8.56 µM
- GI50 [32]: 2.68 µM
- TGI [32]: 9.5 µM
- GI50 [33]: 2.92 µM
- TGI [33]: 11.8 µM
- GI50 [34]: 5.2 µM
- TGI [34]: 18.9 µM
- GI50 [35]: 1.25 µM
- TGI [35]: 4.65 µM
- GI50 [36]: 1.98 µM
- TGI [36]: 10.9 µM
- GI50 [37]: 2.51 µM
- TGI [37]: 12.6 µM
- GI50 [38]: 2.53 µM
- TGI [38]: 11.3 µM
- GI50 [39]: 1.83 µM
- TGI [39]: 10.6 µM
- GI50 [40]: 0.272 µM
- TGI [40]: 1.79 µM
- GI50 [41]: 2.55 µM
- TGI [41]: 11.7 µM
- GI50 [42]: 11 µM
- TGI [42]: 23.9 µM
- GI50 [43]: 7.47 µM
- TGI [43]: 20.9 µM
- GI50 [44]: 3.97 µM
- TGI [44]: 16.5 µM
- GI50 [45]: 1.1 µM
- TGI [45]: 7.86 µM
- GI50 [46]: 1.3 µM
- TGI [46]: 11 µM
- GI50 [47]: 2.45 µM
- TGI [47]: 15.7 µM
- GI50 [48]: 2.11 µM
- TGI [48]: 15.4 µM
- GI50 [49]: 0.224 µM
- TGI [49]: 3.48 µM
- GI50 [50]: 1.08 µM
- TGI [50]: 7.28 µM
- GI50 [51]: 0.863 µM
- TGI [51]: 7.86 µM
- GI50 [52]: 3.07 µM
- TGI [52]: 16.3 µM
- GI50 [53]: 1.27 µM
- TGI [53]: 9.27 µM
- GI50 [54]: 4.46 µM
- TGI [54]: 19.6 µM
- GI50 [55]: 0.421 µM
- TGI [55]: 2.44 µM
